In general, IC50 refers to the concentration needed to halve the response being measured. As a reminder, the inhibition is the relative decrease from the control value, in per cent.

Test [1] addresses Proto-oncogene tyrosine-protein kinase ROS (Homo sapiens, UniProt P08922). Briefly: Inhibition of recombinant human GST-tagged ROS1 expressed in baculovirus expression system by Z'LYTE assay.
For the next test, the system named is NCI-H3122. Briefly: Antiproliferative activity against human NCI-H3122 cells after 48 hrs by MTT assay. To be noted: NCI-H3122, 48 h.
For another test, the system named is HCC78. Briefly: Antiproliferative activity against human HCC78 cells after 48 hrs by MTT assay. To be noted: HCC78, 48 h. (Tetrazolium assays rely on reduction of a dye to a coloured formazan, in cell work by metabolically active cells.)
Test [2] deals with ALK tyrosine kinase receptor (Homo sapiens, UniProt Q9UM73). The test is described as follows: Inhibition of recombinant human GST-tagged ALK expressed in baculovirus expression system by Z'LYTE assay.
ALK tyrosine kinase receptor, sequence (Q9UM73 whole entry): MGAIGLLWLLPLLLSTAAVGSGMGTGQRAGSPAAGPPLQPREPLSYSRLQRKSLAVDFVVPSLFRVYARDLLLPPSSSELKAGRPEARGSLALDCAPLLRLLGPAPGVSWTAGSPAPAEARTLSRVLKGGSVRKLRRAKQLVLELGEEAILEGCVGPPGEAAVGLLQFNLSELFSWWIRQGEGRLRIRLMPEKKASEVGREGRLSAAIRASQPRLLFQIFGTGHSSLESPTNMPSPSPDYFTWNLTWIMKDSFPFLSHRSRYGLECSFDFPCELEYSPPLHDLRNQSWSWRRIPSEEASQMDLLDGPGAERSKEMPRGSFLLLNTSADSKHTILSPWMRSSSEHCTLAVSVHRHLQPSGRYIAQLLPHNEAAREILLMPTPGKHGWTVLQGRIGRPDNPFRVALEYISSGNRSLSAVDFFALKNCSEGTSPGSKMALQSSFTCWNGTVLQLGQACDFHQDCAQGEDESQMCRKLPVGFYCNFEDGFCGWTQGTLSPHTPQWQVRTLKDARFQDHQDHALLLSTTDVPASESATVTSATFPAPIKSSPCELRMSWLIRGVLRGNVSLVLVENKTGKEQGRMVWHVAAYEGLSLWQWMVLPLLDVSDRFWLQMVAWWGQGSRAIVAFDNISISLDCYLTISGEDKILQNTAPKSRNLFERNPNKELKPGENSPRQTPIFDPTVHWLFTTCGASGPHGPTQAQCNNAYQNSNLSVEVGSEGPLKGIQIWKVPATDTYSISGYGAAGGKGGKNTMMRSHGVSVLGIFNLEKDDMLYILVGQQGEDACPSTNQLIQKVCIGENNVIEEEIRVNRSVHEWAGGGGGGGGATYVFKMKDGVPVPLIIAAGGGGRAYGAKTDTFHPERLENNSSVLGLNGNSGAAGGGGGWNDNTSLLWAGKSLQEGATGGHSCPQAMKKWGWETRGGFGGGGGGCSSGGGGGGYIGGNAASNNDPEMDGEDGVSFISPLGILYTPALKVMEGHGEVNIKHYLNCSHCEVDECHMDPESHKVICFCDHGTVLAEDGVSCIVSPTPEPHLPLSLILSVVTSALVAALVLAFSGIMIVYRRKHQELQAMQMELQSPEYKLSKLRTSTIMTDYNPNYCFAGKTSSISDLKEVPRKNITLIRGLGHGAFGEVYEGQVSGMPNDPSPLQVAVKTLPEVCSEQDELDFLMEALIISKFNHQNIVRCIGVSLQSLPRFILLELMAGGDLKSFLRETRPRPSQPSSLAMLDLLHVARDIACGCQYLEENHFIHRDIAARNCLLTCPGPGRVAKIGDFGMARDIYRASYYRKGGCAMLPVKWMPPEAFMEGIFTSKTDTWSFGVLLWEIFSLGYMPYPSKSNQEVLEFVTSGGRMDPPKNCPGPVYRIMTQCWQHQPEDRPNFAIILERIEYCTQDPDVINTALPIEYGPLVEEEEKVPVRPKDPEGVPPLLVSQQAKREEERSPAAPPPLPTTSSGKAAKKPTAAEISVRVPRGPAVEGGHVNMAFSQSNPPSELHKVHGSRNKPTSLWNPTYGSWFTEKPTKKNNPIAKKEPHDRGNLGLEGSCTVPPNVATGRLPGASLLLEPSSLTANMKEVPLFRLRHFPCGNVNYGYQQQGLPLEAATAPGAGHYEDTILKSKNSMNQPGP
Test [3] concerns the target Tyrosine-protein kinase ABL1 (Homo sapiens) (UniProt P00519). The test is described as follows: Inhibition of recombinant human His-tagged ABL1 expressed in baculovirus expression system at 1 uM by Z'LYTE assay relative to control.
Test [4] has as its target Serine/threonine-protein kinase B-raf (Homo sapiens) (UniProt P15056). The test is described as follows: Inhibition of recombinant human full length GST-tagged BRAF expressed in baculovirus expression system at 1 uM by Z'LYTE assay relative to control.
The target in test [5] is CDK2/Cyclin A2 (Homo sapiens) (UniProt P24941+P20248). The test is described as follows: Inhibition of recombinant human full length His-tagged CDK2/cyclin A expressed in baculovirus expression system at 1 uM by Z'LYTE assay relative to control.
Test [6] has as its target Epidermal growth factor receptor (Homo sapiens) (UniProt P00533). The test is described as follows: Inhibition of recombinant human GST-tagged EGFR expressed in baculovirus expression system at 1 uM by Z'LYTE assay relative to control.
Test [7] concerns the target Fibroblast growth factor receptor 1 (Homo sapiens) (UniProt P11362). The test is described as follows: Inhibition of recombinant human His-tagged FGFR1 expressed in baculovirus expression system at 1 uM by Z'LYTE assay relative to control.
Test [8] has as its target Insulin-like growth factor 1 receptor (Homo sapiens) (UniProt P08069). The test is described as follows: Inhibition of recombinant human His-tagged IGF1R expressed in baculovirus expression system at 1 uM by Z'LYTE assay relative to control.
The target in test [9] is Tyrosine-protein kinase JAK2 (Homo sapiens) (UniProt O60674). The test is described as follows: Inhibition of recombinant human GST-tagged JAK2 expressed in baculovirus expression system at 1 uM by Z'LYTE assay relative to control.
The target in test [10] is Mast/stem cell growth factor receptor Kit (Homo sapiens) (UniProt P10721). Briefly: Inhibition of KIT (unknown origin) at 1 uM by Z'LYTE assay relative to control.
For test [11], the target named is Leukocyte tyrosine kinase receptor (Homo sapiens) (UniProt P29376). Briefly: Inhibition of recombinant human GST-tagged LTK expressed in baculovirus expression system at 1 uM by Z'LYTE assay relative to control.
The target of test [12] is Mitogen-activated protein kinase 3 (Homo sapiens) (UniProt P27361). Briefly: Inhibition of recombinant human GST-tagged full length MAPK3 expressed in Escherichia coli at 1 uM by Z'LYTE assay relative to control.
Test [13] deals with Hepatocyte growth factor receptor (Homo sapiens) (UniProt P08581). The test is described as follows: Inhibition of recombinant human His-tagged MET expressed in mammalian expression system at 1 uM by Z'LYTE assay relative to control.
Test [14] has as its target Platelet-derived growth factor receptor alpha (Homo sapiens) (UniProt P16234). Briefly: Inhibition of recombinant human GST-tagged PDGFRalpha expressed in baculovirus expression system at 1 uM by Z'LYTE assay relative to control.

Proto-oncogene tyrosine-protein kinase ROS, sequence (P08922 whole entry): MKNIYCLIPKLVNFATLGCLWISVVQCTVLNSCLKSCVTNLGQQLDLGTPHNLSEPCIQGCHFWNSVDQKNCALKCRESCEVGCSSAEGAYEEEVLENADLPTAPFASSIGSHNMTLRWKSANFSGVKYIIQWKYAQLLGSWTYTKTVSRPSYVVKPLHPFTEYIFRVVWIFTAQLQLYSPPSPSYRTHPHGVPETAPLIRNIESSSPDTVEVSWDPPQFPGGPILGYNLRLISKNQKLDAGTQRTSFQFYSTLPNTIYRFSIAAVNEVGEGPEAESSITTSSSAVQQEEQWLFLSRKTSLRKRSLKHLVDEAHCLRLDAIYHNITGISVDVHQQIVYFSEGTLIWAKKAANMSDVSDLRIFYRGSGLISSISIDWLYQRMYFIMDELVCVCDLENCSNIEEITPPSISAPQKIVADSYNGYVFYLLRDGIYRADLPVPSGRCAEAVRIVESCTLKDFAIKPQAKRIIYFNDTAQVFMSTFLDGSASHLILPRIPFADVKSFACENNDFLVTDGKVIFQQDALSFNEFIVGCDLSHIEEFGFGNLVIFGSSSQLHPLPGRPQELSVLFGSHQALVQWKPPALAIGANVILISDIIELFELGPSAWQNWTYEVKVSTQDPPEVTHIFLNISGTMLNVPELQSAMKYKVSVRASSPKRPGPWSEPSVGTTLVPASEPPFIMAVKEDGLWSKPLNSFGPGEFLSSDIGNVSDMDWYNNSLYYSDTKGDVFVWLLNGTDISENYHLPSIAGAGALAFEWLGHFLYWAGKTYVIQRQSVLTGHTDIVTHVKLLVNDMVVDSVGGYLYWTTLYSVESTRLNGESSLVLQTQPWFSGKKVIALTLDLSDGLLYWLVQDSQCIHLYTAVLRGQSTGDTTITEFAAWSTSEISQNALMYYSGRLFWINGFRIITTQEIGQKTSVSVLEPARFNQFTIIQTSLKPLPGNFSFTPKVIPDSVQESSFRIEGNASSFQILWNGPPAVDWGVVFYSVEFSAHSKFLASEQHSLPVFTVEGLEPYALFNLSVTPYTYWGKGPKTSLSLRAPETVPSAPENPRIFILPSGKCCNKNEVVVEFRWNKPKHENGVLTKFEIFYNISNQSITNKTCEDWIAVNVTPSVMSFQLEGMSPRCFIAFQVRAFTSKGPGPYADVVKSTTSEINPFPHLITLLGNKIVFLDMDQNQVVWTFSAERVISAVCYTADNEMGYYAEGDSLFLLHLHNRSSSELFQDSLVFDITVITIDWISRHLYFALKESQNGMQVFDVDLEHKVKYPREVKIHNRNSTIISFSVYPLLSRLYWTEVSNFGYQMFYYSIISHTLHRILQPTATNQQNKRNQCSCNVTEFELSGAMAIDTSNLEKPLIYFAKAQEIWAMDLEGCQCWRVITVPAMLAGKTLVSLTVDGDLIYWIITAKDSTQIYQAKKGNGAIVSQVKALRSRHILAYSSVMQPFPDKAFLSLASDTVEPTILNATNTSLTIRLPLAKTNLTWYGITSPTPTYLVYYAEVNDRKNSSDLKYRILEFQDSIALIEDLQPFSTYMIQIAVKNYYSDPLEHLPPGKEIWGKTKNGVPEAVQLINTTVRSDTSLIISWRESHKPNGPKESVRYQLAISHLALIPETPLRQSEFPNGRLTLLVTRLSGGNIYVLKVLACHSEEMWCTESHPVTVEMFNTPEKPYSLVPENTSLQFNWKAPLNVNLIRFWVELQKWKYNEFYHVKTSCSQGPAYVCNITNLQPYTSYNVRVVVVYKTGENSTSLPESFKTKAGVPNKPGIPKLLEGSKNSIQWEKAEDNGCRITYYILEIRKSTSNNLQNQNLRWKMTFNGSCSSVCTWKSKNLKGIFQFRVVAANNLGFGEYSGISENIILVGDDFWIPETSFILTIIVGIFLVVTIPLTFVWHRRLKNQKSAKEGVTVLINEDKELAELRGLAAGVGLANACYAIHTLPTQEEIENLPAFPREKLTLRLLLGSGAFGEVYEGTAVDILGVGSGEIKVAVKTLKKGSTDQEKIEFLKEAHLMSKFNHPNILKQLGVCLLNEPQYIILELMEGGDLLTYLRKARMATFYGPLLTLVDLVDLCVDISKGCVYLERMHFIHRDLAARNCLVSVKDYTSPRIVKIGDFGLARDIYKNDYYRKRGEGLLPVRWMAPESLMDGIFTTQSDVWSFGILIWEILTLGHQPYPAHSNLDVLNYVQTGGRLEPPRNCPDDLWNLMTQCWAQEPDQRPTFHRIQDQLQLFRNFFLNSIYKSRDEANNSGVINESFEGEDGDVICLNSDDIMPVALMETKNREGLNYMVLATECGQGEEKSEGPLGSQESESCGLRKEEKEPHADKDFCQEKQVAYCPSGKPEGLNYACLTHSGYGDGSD
Epidermal growth factor receptor (Homo sapiens), sequence (P00533 whole entry): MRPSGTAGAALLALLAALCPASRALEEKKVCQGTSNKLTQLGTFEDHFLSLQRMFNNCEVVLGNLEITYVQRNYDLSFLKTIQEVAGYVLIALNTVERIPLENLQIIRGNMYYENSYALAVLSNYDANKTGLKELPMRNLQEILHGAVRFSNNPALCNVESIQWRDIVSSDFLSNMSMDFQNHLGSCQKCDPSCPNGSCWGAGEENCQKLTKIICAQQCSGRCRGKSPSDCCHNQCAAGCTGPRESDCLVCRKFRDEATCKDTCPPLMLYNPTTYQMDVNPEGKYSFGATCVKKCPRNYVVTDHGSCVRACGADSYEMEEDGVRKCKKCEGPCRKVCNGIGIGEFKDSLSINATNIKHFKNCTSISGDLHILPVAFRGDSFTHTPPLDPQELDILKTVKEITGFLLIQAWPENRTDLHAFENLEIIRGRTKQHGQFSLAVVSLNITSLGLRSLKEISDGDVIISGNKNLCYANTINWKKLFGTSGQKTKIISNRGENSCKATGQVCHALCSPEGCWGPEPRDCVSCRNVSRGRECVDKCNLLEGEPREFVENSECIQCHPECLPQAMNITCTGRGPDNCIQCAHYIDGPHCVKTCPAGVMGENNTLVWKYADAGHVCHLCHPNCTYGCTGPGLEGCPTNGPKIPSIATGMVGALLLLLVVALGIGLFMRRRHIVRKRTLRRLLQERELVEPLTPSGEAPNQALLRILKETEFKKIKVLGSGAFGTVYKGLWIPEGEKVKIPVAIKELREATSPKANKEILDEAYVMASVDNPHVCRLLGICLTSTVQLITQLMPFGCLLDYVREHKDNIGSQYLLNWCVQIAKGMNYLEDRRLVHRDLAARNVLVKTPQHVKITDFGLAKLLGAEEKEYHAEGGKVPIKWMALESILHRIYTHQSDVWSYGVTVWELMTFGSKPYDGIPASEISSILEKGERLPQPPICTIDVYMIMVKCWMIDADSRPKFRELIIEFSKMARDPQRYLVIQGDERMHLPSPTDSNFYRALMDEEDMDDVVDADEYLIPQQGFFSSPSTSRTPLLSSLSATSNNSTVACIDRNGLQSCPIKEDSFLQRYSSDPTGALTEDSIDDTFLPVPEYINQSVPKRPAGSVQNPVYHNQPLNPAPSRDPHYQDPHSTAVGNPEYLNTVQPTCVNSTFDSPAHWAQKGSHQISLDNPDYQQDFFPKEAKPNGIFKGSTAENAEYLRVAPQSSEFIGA

Turning to `Cc1ccc(CNC(=O)c2cccc(C(C)Oc3ccnc(NN4CCCCC4)c3)c2)cc1` (stereo not given), the half-maximal inhibitory concentration (IC50) in test [1] was greater than 10 µM; with NCI-H3122, 37.4 µM; in the test on HCC78 it was 24.5 µM.

As for `CC(Oc1cccnc1Nc1cnn(C)c1)c1cccc(C(=O)NCc2ccc(F)cc2)c1` (stereo not given), the IC50 is greater than 10 µM in test [1], 43.8 µM with NCI-H3122 and 68.5 µM with HCC78.

Take `Cc1ccc(CNC(=O)c2cccc(C(C)Oc3cccnc3Nn3cnnc3)c2)cc1` (stereo not given): the IC50 was greater than 10 µM in test [1], 23.7 µM with NCI-H3122 and 9.4 µM with HCC78.

Regarding `Cc1ccc(CNC(=O)c2cccc(C(C)Oc3cccnc3Nc3cnn(CC#N)c3)c2)cc1` (stereo not given), the IC50 is greater than 10 µM in test [2], 8.7 µM in test [1], 38.4 µM in the test with NCI-H3122 and 57.4 µM in the test with HCC78.

As for `CC(Oc1cccnc1Nc1cnn(C)c1)c1cccc(C(=O)NCc2ccc(F)c(Cl)c2)c1` (stereo not given), the figures for the half-inhibitory concentration (IC50) (in test [1]; in the test with NCI-H3122; in the test with HCC78) were greater than 10 µM, 35.7 µM and 7.8 µM, respectively.

As for `CC(Oc1ccnc(NN2CCN(C)CC2)c1)c1cccc(C(=O)NCc2ccc(Cl)c(C(F)(F)F)c2)c1` (stereo not given), the IC50 stood at 9.1 µM in test [1], 21.7 µM in the test with NCI-H3122 and 23.5 µM with HCC78.

On to `CC(Oc1cccnc1Nc1cnn(C)c1)c1cccc(C(=O)NCc2ccc(Cl)c(C(F)(F)F)c2)c1` (stereo not given), for which the IC50 in [1] came to 6.3 µM; in the test with NCI-H3122, 50.7 µM; in the test on HCC78 it was 48.6 µM.

Consider `COc1ccc(CNC(=O)c2cccc(C(C)Oc3ccnc(Nc4cnn(C5CCNCC5)c4)c3)c2)cc1OC` (stereo not given), for which the concentration for half-maximal inhibition (IC50) was 4.5 µM in test [2], 0.37 µM in test [1], 47.2 µM in the test with NCI-H3122 and 65.3 µM with HCC78. Besides, the inhibition amounted to 11% in test [3]; 13% in test [4]; 2% in test [5]; 0% in [6]; 16% in test [7]; 9% in [8]. In addition, the inhibition in [9] amounted to 10%; in test [10], 3%; in [11] it was 15%; in [12], 7%; in test [13] it was 5%; in test [14], 1%.

Turning to `CC(Oc1cccnc1Nc1cnn(C)c1)c1cccc(C(=O)NCc2ccc(OC(F)(F)F)cc2)c1` (stereo not given), the IC50 in test [1] is greater than 10 µM; with NCI-H3122, 8.3 µM; in the test on HCC78, 73.9 µM.

Consider `Cc1ccc(CNC(=O)c2cccc(C(C)Oc3cccnc3Nc3cnn(CC(C)(C)O)c3)c2)cc1` (stereo not given), for which the IC50 in test [2] is greater than 10 µM; in test [1], 9.4 µM; with NCI-H3122, 9.1 µM; with HCC78 it was 20.5 µM.

For `COc1cc(Nc2cc(OC(C)c3cccc(C(=O)NCc4ccc(C)cc4)c3)ccn2)cc(OC)c1OC` (stereo not given), the IC50 in [1] turned out to be 2.4 µM; with NCI-H3122 it was 7.8 µM; with HCC78, 15.7 µM.

As for `C[C@@H](Oc1cc(-c2cnn(C3CCNCC3)c2)cnc1N)c1c(Cl)ccc(F)c1Cl` [CRIZOTINIB], the IC50 in the test with NCI-H3122 came to 0.8 µM; in the test on HCC78 it was 2 µM.

On to `Cc1ccc(CNC(=O)c2cccc(C(C)Oc3ccnc(NN4CCN(C)CC4)c3)c2)cc1` (stereo not given), for which the IC50 was greater than 10 µM in test [1], 8.1 µM with NCI-H3122 and 26.2 µM with HCC78.

On to `COc1ccc(CNC(=O)c2cccc(C(C)Oc3ccnc(Nc4ncccn4)c3)c2)cc1OC` (stereo not given), for which the IC50 in [1] was 0.44 µM; with NCI-H3122, greater than 100 µM; in the test with HCC78, greater than 100 µM.

With `CC(Oc1cccnc1Nc1cnn(C)c1)c1cccc(C(=O)NCc2ccccc2S(=O)(=O)C(C)C)c1` (stereo not given), the IC50 in [2] is greater than 10 µM; in test [1], 8.7 µM; in the test on NCI-H3122, greater than 100 µM; with HCC78, 63.1 µM.

On to `Cc1cnc(Nc2ncccc2OC(C)c2cccc(C(=O)NCc3ccc(F)c(Cl)c3)c2)s1` (stereo not given), for which the half-inhibitory concentration (IC50) in test [1] was 9.6 µM; in the test with NCI-H3122, 8.2 µM; with HCC78, 34.7 µM.

For the molecule `Cc1ccc(CNC(=O)c2cccc(C(C)Oc3ccnc(Nc4cn(C)nc4C)c3)c2)cc1` (stereo not given), the figures for the IC50 (in test [1]; in the test with NCI-H3122; in the test with HCC78) were 1.4 µM, 13.4 µM and 17.5 µM, respectively.

For the molecule `CC(Oc1ccnc(Nc2cnn(CC(C)(C)O)c2)c1)c1cccc(C(=O)NCc2ccc(Cl)c(C(F)(F)F)c2)c1` (stereo not given), the IC50 was 8.4 µM in [1], 38.4 µM in the test on NCI-H3122 and greater than 100 µM in the test on HCC78.

Regarding `Cc1ccc(CNC(=O)c2cccc(C(C)Oc3ccnc(Nc4nc5ccccc5[nH]4)c3)c2)cc1` (stereo not given), the 50% inhibitory concentration (IC50) in test [2] is greater than 10 µM; in [1], greater than 10 µM; with NCI-H3122, 9.4 µM; in the test with HCC78 it was greater than 100 µM.

As for `Cc1ccc(CNC(=O)c2cccc(C(C)Oc3cccnc3Nc3ncccn3)c2)cc1` (stereo not given), the 50% inhibitory concentration (IC50) in test [2] was greater than 10 µM; in [1] it was 6.2 µM; in the test on NCI-H3122 it was greater than 100 µM; in the test with HCC78, greater than 100 µM.

In the case of `Cc1ccc(CNC(=O)c2cccc(C(C)Oc3cccnc3Nc3ncc(C)s3)c2)cc1` (stereo not given), the IC50 in [2] was greater than 10 µM; in test [1] it was 9.4 µM; with NCI-H3122, 8.5 µM; in the test on HCC78, 14.8 µM.

As to `CC(Oc1ccnc(Nc2cnn(C)c2)c1)c1cccc(C(=O)NCc2cc(F)cc(F)c2)c1` (stereo not given), the IC50 turned out to be 2.4 µM in test [1], 7.6 µM with NCI-H3122 and 13.2 µM in the test on HCC78.

As for `COc1cccc(CNC(=O)c2cccc(C(C)Oc3ccnc(Nc4cnn(C)c4)c3)c2)c1` (stereo not given), the values for the IC50 (in test [1]; in the test on NCI-H3122; in the test on HCC78) were 1.8 µM, greater than 100 µM and 64.4 µM, respectively.

Regarding `Cc1ccc(CNC(=O)c2cccc(C(C)Oc3cccnc3Nc3nncs3)c2)cc1` (stereo not given), the concentration for half-maximal inhibition (IC50) is greater than 10 µM in test [1], 20.8 µM in the test with NCI-H3122 and 17.6 µM in the test with HCC78.

In the case of `COc1ccc(CNC(=O)c2cccc(C(C)Oc3ccnc(Nc4cnn(C5CCN(C)CC5)c4)c3)c2)cc1OC` (stereo not given), the IC50 is 0.57 µM in test [1], 14.8 µM in the test with NCI-H3122 and 9 µM in the test with HCC78.

For `Cc1ccc(CNC(=O)c2cccc(C(C)Oc3ccnc(Nc4cnn(CC(C)(C)O)c4)c3)c2)cc1` (stereo not given), the IC50 in [2] was greater than 10 µM; in [1], 2.4 µM; with NCI-H3122, greater than 100 µM; in the test on HCC78, 49.7 µM.

On to `COc1cc(CNC(=O)c2cccc(C(C)Oc3ccnc(Nc4cnn(C)c4)c3)c2)cc(OC)c1OC` (stereo not given), for which the IC50 in test [1] amounted to 0.41 µM; with NCI-H3122, 29 µM; with HCC78, 73.9 µM.

Consider `CC(Oc1ccnc(Nc2cnn(C)c2)c1)c1cccc(C(=O)NCc2ccc(C#N)cc2)c1` (stereo not given), for which the half-inhibitory concentration (IC50) is 1.5 µM in test [1], 35.1 µM in the test with NCI-H3122 and 8.7 µM in the test on HCC78.

For `CC(Oc1ccnc(Nc2cnn(C3CCN(C)CC3)c2)c1)c1cccc(C(=O)NCc2ccc(Cl)c(C(F)(F)F)c2)c1` (stereo not given), the values for the IC50 (in test [1]; in the test with NCI-H3122; in the test on HCC78) were 2.3 µM, 8 µM and 7.3 µM, respectively.

Consider `CC(Oc1ccnc(Nc2cnn(C)c2)c1)c1cccc(C(=O)NCc2cc(C(F)(F)F)cc(C(F)(F)F)c2)c1` (stereo not given), for which the half-inhibitory concentration (IC50) in test [2] is greater than 10 µM; in test [1] it was 7.4 µM; in the test on NCI-H3122, 24.7 µM; with HCC78, 9.3 µM.

With `Cc1ccc(CNC(=O)c2cccc(C(C)Oc3ccnc(Nc4cnn(C)c4)c3)c2)cc1` (stereo not given), the IC50 came out at 1.8 µM in test [1], 7.7 µM with NCI-H3122 and 8.9 µM in the test with HCC78.

`Cc1ccc(CNC(=O)c2cccc(C(C)Oc3cccnc3Nc3nccs3)c2)cc1` (stereo not given): the concentration for half-maximal inhibition (IC50) was greater than 10 µM in test [1], 15.3 µM with NCI-H3122 and 27.1 µM with HCC78.

`Cc1ccc(CNC(=O)c2cccc(C(C)Oc3ccnc(NN4CCOCC4)c3)c2)cc1` (stereo not given): the IC50 was greater than 10 µM in test [1], greater than 100 µM in the test on NCI-H3122 and 68.3 µM in the test with HCC78.

As for `COc1cccc(CNC(=O)c2cccc(C(C)Oc3cccnc3Nc3cnn(C)c3)c2)c1` (stereo not given), the IC50 was greater than 10 µM in test [1], 49.4 µM in the test with NCI-H3122 and 78.6 µM in the test with HCC78.

`COc1ccc(CNC(=O)c2cccc(C(C)Oc3ccnc(Nc4cnn(C)c4)c3)c2)cc1OC` (stereo not given): the IC50 is 0.64 µM in test [1], 38.5 µM in the test on NCI-H3122 and 76.6 µM with HCC78.

The values above are taken from ChEMBL document CHEMBL4138202, “Design, synthesis, biological evaluation and molecular modeling of novel 2-amino-4-(1-phenylethoxy) pyridine derivatives as potential ROS1 inhibitors” (Eur J Med Chem, 2018).
